Data from article PMC4974614, “Human native kappa opioid receptor functions not predicted by recombinant receptors: Implications for drug design” (Scientific Reports, 2016).
Several values for one entry are separate records, joined by “and”; a condition that tells them apart may be missing. Equal values may be shown once. Where a name gives a salt, the structure may show the parent alone. Read-outs that look alike come from different tables or passages of the source.

Tests used:
[1] = tested on: human descending colon; test: cells; assay type: cell-based
[2] = target: T1, mouse κ receptor (Mus musculus, UniProt P33534); test: cell-based; details: HEK293, read-out: BRET Emax (%)
T1 sequence (P33534 whole entry): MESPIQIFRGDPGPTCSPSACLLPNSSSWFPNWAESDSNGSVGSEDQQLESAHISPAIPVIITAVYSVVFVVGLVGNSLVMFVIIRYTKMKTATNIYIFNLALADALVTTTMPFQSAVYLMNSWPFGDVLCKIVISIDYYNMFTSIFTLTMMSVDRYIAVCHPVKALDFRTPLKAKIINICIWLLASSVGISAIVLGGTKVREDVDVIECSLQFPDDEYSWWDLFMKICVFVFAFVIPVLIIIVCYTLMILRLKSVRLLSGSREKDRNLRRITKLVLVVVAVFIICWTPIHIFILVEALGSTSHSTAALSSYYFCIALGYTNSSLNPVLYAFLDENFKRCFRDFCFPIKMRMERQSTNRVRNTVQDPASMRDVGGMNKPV

[3] = tested on: tetrodotoxin-sensitive Na+ channels; details: read-out: EC50, block of tetrodotoxin-sensitive Na+ channels; cited from earlier work
[4] = tested on: mouse proximal colon; test: Carbachol-induced contractions of mouse proximal colon; assay type: cell-based
Description: Changes in muscle tension were recorded using isometric force transducers (AD Instruments, Chalgrove, UK) on a data acquisition system (Biopac Systems Inc., Goleta, CA, USA). The strips were given 1 g tension and allowed to recover for 30 min during which time the bath solutions were changed every 15 min; this initial tension was previously determined as the optimum required to maximally detect EFS-evoked responses in both regions (data not shown). Electrical Field Stimulation (EFS) was applied at 5 Hz using a maximally-effective voltage (80 V) and 0.5 ms bipolar pulse duration […], given for 30 s every 120 s, for at least 1 hour before drug addition. These parameters of EFS consistently evoked nerve-mediated responses with a good signal-to-noise ratio over spontaneous muscle activity. After obtaining consistent responses, drugs were applied non-cumulatively to separate tissues (20 min contact); changes in resting muscle tension and responses to EFS were measured. Finally, any effects of the drugs on carbachol-induced contractions were examined by first obtaining consistent responses to a submaximally-effective concentration of carbachol (1 μM; 27 ± 9% max, 5 min contact; n = 4). The compounds were then added 5 min before application of carbachol (1 μM, 5 min contact), followed by washing, and this process was repeated at least once more.

[5] = target: T1, mouse κ receptor; assay type: cell-based
[6] = target: T2, human κ receptor (Homo sapiens, UniProt P41145); assay type: cell-based
T2 sequence (P41145 whole entry): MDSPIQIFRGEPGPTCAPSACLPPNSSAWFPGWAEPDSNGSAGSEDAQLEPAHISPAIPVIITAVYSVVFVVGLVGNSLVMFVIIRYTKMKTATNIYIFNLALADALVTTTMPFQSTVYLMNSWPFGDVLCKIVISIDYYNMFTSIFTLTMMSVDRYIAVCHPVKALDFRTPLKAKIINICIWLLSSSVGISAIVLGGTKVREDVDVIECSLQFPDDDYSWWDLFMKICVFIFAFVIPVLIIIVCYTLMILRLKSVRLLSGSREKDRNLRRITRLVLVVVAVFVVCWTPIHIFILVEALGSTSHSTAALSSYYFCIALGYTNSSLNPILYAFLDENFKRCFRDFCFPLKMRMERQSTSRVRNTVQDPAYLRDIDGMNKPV

[7] = target: T2, human κ receptor; test: cell-based; details: for Emax: HEK293, read-out: TR-FRET Emax (%)
[8] = tested on: human descending colon; test: Carbachol-evoked contractions of human descending colon
[9] = target: T2, human κ receptor; test: cell-based; details: for Emax: HEK293, read-out: BRET Emax (%)
[10] = tested on: μ-opioid receptors; details: cited from earlier work
[11] = human, in vivo; cited from earlier work
[12] = target: T1, mouse κ receptor; test: cell-based; details: HEK293, read-out: TR-FRET Emax (%)
[13] = in vivo; cited from earlier work
[14] = tested on: human isolated colon; test: EFS-evoked cholinergically-mediated contractions of human isolated colon; assay type: cell-based; details: for inhibition at 1 µM: read-out: % inhibition of contractions evoked during EFS; for effect alone on responses to EFS: phentolamine 1 μM and propranolol 1 μM together, descending colon
[15] = tested on: mouse isolated colon; test: EFS-evoked cholinergically-mediated contractions of mouse isolated colon; assay type: cell-based; details: for Emax / EC50: Mus musculus; for Emax: read-out: Emax (%), inhibition of EFS-evoked after-contractions; for EC50: read-out: pEC50, inhibition of EFS-evoked after-contractions (converted)
[16] = tested on: K+ channels in mouse epithelia; details: read-out: IC50, block of K+ channels; cited from earlier work
[17] = target: Recombinant human receptor; details: cited from earlier work
[18] = tested on: mouse κ receptors in COS-1 cells; details: read-out: IC50, radioligand binding; cited from earlier work
[19] = target: Recombinant human receptor; details: cited from earlier work; remark: listed apart in the source
[20] = tested on: human isolated colon; details: cited from earlier work
[21] = tested on: κ receptor; details: cited from earlier work

Q: With CN(C(=O)C(c1ccccc1)c1ccccc1)[C@H](CN1CC[C@H](O)C1)c1ccccc1 [Asimadoline] as the compound, how does the “maximum inhibition of the response to ICI204448 60 nM” value [1] read?
A: 19 ± 7%

Q: And the IC50 ([1]; Homo sapiens, read-out: pIC50, reduction of the response to ICI204448 60 nM (converted))?
A: 1.58 nM

Q: What about the Emax [2] of the same compound?
A: 99 ± 4%

Q: And the EC50 [3]?
A: 8400 nM

Q: And the “effect on contractions induced by carbachol 1 μM” value [4]?
A: 5 ± 7

Q: And the BIAS [5]?
A: 0.65

Q: What about the BIAS [6] of the same compound?
A: 0.60

Q: What about the EC50 [7] of the same compound?
A: 39.8 nM

Q: And the Emax [7]?
A: 97 ± 2%

Q: What about the “effect on contractions evoked by carbachol 1 μM” value [8] of the same compound?
A: −10 ± 9%

Q: What about the EC50 ([9]; BRET pEC50) of the same compound?
A: 0.631 nM

Q: And the Emax [9]?
A: 98 ± 5%

Q: What about the “concentration activating μ-opioid receptors” value [10] of the same compound?
A: 3 µM

Q: What about the “effect on colonic transit or postprandial motility” value [11] of the same compound?
A: not to affect colonic transit or postprandial motility

Q: And the Emax [12]?
A: 96 ± 3%

Q: What about the “effect on sensation or pain caused by colonic distension” value [13] of the same compound?
A: reduced the sensation or pain caused by colonic distension

Q: And the “Time to max effect” value [14]?
A: 40 ± 4 min

Q: What about the “effect on baseline muscle tension” value [14] of the same compound?
A: Neither asimadoline nor ICI204448 changed baseline muscle tension

Q: And the “time to maximum inhibition” value [14]?
A: 30 ± 5 min

Q: What about the inhibition at 1 µM ([14]; Homo sapiens) of the same compound?
A: -29 ± 4%

Q: What about the “reduction of contractions of the distal colon” value [15] of the same compound?
A: 59 ± 13%

Q: And the “time taken to achieve maximum activity” value [15]?
A: 17 ± 3 min

Q: What about the Emax [15] of the same compound?
A: 52 ± 7%

Q: And the EC50 [15]?
A: 7.94 nM

Q: And the IC50 [16]?
A: 23700 nM

Q: Which Emax [2] does the source give for CN(C(=O)Cc1ccc(Cl)c(Cl)c1)C(CN1CCCC1)c1cccc(OCC(=O)O)c1 (stereo not drawn) [ICI204448] here?
A: 90 ± 4%

Q: And the “effect on contractions induced by carbachol 1 μM” value ([4]; 1 μM, proximal colon)?
A: 0 ± 5 % initial carbachol response

Q: And the “G protein pEC50” value [17]?
A: 8.38 ± 0.09

Q: What about the IC50 [18] of the same compound?
A: 6.6 nM

Q: And the Emax [7]?
A: 98 ± 2%

Q: And the “effect on contractions evoked by carbachol 1 μM” value ([8]; 100 nM, descending colon, no EFS)?
A: −9 ± 2%

Q: And the Emax [9]?
A: 100 ± 3%

Q: And the “Arrestin pEC50” value [19]?
A: 8.48 ± 0.06

Q: And the “biased activity towards the human κ receptor arrestin pathway” value [19]?
A: only weak propensity for biased activity

Q: What about the Emax [12] of the same compound?
A: 92 ± 4%

Q: What about the “Time to max effect” value [14] of the same compound?
A: 13 ± 3 min

Q: What about the “effect on baseline muscle tension” value [14] of the same compound?
A: Neither asimadoline nor ICI204448 changed baseline muscle tension

Q: And the “effect on relaxations evoked by EFS” value [14]?
A: 1 ± 7 % change from baseline EFS

Q: What about the “pEC50, inhibition of contractions during EFS” value [14] of the same compound?
A: 8.0 ± 0.4

Q: What about the “time to maximum inhibition” value [14] of the same compound?
A: 7 ± 1 min

Q: And the inhibition at 1 µM ([14]; Homo sapiens)?
A: -57 ± 10%

Q: And the inhibition at 0.1 µM ([14]; Homo sapiens, read-out: inhibition of EFS-evoked contractions)?
A: 130 ± 29%

Q: What about the “Emax (%), inhibition of EFS-evoked after-contractions” value [15] of the same compound?
A: 57 ± 7%

Q: And the “reduction of contractions of the distal colon” value [15]?
A: 70 ± 5%

Q: What about the “time taken to achieve maximum activity” value [15] of the same compound?
A: 7 ± 2 min

Q: What about the Emax [15] of the same compound?
A: 49 ± 8%

Q: And the EC50 [15]?
A: 3.16 nM

Q: Which “effect on relaxations during EFS” value ([14]; 300 μM, ascending and descending colon) does the source give for COC(=O)[C@@H](N)CCCNC(N)=N[N+](=O)[O-] [L-NAME, Nω-nitro-L-arginine methyl ester hydrochloride] here?
A: prevented

Q: What about the “effect on EFS-evoked relaxations” value ([15]; 300 μM, proximal and distal colon) of the same compound?
A: abolished

Q: Which attenuation of after-contractions [20] does the source give for CN1[C@@H]2CC[C@H]1C[C@@H](OC(=O)C(CO)c1ccccc1)C2 (stereo partly drawn) [atropine] here?
A: 56 ± 12%

Q: And the “effect on contractions during EFS” value [14]?
A: prevented

Q: And the “increase of EFS-evoked relaxations” value [15]?
A: 61 ± 13%

Q: And the reduction of after-contractions [15]?
A: 81 ± 5%

Q: Which results are given for C[N+](C)(C)CCOC(N)=O [carbachol]?
A: contraction as % max ([4]; 1 μM, 5 min contact): 27 ± 9 % max; contraction as % of maximum contraction to carbachol ([8]; 1 μM, 5 min contact): ~ 50%

Q: With CC[C@](COCc1cc(OC)c(OC)c(OC)c1)(c1ccccc1)N(C)C [fedotozine] as the compound, how does the “selectivity for the κ receptor over other opioid receptors” value [21] read?
A: ~2 fold

Q: Which results are given for Oc1ccc2c3c1O[C@H]1c4[nH]c5c(c4C[C@@]4(O)[C@@H](C2)N(CC2CC2)CC[C@]314)C[C@@]1(O)[C@H]2Cc3ccc(O)c4c3[C@@]1(CCN2CC1CC1)[C@H]5O4 [nor-binaltorphamine]?
A: effect by itself on contractions to EFS [14]: by itself did not affect contractions to EFS; intercept of Schild analysis [14]: −9.7; slope of Schild analysis [14]: 0.53 ± 0.11; effect by itself on the response to EFS [15]: did not by itself change the response to EFS; effect on inhibition by ICI204448 and asimadoline [15]: antagonised

Q: Which “effect alone on responses to EFS” value [14] does the source give for Cc1ccc(N(CC2=NCCN2)c2cccc(O)c2)cc1 [phentolamine] here?
A: 2 ± 3 % change from baseline EFS

Q: For CC(C)NCC(O)COc1cccc2ccccc12 (stereo not drawn) [propranolol], which “effect alone on responses to EFS” value [14] is on record?
A: 2 ± 3 % change from baseline EFS

Q: What does the source list for NC1=N[C@H](O)[C@H]2[C@H]3O[C@]4(O)O[C@@H]([C@@H](O)[C@@]2(N1)[C@@H]4O)[C@]3(O)CO [tetrodotoxin]?
A: effect on responses evoked by EFS [14]: prevented; effect on EFS-evoked responses (relaxation, after-contraction) [15]: prevented

Q: Which “G protein pEC50” value [17] does the source give for Dynorphin 1-13 here?
A: 8.68 ± 0.07

Q: What about the “Arrestin pEC50” value [19] of the same compound?
A: 7.01 ± 0.07

Q: And the “% inhibition of contractions evoked during EFS” value [14]?
A: -30% and -35%

Q: And the “Time to max effect” value [14]?
A: 17 min and 11 min
